Values joined by “and” are separate entries in the source; they are usually repeats but may differ in a detail not shown here. Equal entries are not always repeated. Where two headings read alike, the source gives them in different places.
What was measured:
[1] = target: T1, human VR1 (Homo sapiens, UniProt Q8NER1); experiment: Human VR1 functional assay (intracellular Ca++, FLIPR, capsaicin challenge); assay type: cell-based
T1 construct: expressed in transfected cells; host or cells: HEK293
Description: The functional activity of the test compounds was determined by measuring changes in intracellular calcium concentration using a Ca^++-sensitive fluorescent dye and FLIPR™ technology.
EC50 or IC50 values were determined from dose-response studies.

[2] = target: T1, human VR1; experiment: Human VR1 [3H] RTX binding assay; details: 3H-RTX binding; for inhibition at 1 µM: compound at 1 μM; for Ki: hVR1, read-out: 3H-RTX binding assay Ki hVR1
Outline: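 Membranes from HEK293 cells transfected with human VR1, about 120 μg protein/ml, incubated with [3H] RTX in HEPES buffer pH 7.4 with 0.25 mg/mL fatty acid-free BSA for 60 min at 37° C. Bound radioactivity measured by scintillation counting. Non-specific binding defined with 200 nM unlabeled RTX.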

[3] = tested on: carrageenan paw-induced thermal hyperalgesia; experiment: Carrageenan Paw-induced Thermal Hyperalgesia; assay type: in vivo, mice or rats; details: read-out: % Recovery; for inhibition in vivo at 30 mg/kg: 30 mg/kg po
[4] = hVR1, capsaicin challenge, read-out: FLIPR functional assay IC50 hVR1
[5] = FLIPR functional assay IC50 hVR1 60 min, 60 min

T1 sequence (Q8NER1 whole entry): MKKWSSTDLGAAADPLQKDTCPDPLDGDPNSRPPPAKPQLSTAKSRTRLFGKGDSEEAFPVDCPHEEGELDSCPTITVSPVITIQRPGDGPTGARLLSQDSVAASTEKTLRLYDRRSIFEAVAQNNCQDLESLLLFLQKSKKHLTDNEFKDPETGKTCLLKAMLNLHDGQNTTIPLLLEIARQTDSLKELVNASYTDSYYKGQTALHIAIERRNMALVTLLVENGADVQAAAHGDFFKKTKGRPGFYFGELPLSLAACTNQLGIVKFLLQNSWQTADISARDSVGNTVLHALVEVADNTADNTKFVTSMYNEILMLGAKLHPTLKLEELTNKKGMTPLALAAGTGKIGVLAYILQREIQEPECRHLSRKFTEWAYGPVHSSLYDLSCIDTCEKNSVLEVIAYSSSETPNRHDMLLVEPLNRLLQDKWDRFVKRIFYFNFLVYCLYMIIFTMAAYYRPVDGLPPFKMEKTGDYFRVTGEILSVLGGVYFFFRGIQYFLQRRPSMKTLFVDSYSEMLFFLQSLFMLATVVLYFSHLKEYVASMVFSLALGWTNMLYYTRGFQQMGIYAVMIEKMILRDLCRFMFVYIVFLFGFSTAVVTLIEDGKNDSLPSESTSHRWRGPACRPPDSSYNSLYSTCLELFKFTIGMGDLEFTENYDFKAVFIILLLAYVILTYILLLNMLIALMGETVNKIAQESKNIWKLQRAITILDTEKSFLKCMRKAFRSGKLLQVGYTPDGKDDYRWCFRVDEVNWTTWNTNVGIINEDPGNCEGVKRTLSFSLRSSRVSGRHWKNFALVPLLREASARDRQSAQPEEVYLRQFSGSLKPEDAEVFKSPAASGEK

Row | IC50 [1, 4] | inhibition at 1 µM [2] | Ki [2] | IC50 [1, 5] | Structure (SMILES) | inhibition in vivo at 30 mg/kg [3] | inhibition in vivo at 20 mg/kg ([3]; 20 mg/kg po) | inhibition in vivo at 10 mg/kg ([3]; 10 mg/kg po) | inhibition in vivo at 10 mg/kg ([3]; 10 mg/kg sc)
1 | 10000 nM | 97% | 64.9 nM |  | CC(C)(C)C1CCC(C(=O)Nc2cnc3ccccc3c2)CC1 (stereo not drawn) [4-tert-Butyl-cyclohexanecarboxylic acid quinolin-3-ylamide] |  |  |  | 
2 | 10000 nM | 82% | 221 nM |  | CCCCC(C)(C)c1ccc(CCCC(=O)Nc2cnc3ccccc3c2)cc1 [4-{4-(1,1-Dimethyl-pentyl)-phenyl}-N-quinolin-3-yl-butyramide] |  |  |  | 
3 | 10000 nM | 55% | 137 nM |  | CCC(C)(C)c1ccc(C=CCC(=O)Nc2cnc3ccccc3c2)cc1 [4-{4-(1,1-Dimethyl-propyl)-phenyl}-but-3-enoic acid quinolin-3-ylamide] |  |  |  | 
4 | 10000 nM | 99% | 20.9 nM | 1300 nM | CN(CCC(C)(C)C)c1ccc(C(=O)Nc2cnc3ccccc3c2)cc1 [4-{(3,3-Dimethyl-butyl)-methyl-amino}-N-quinolin-3-yl-benzamide] |  |  |  | 
5 | 280 nM | 90% | 554 nM |  | CC(C)CCN(C)c1ccc(C(=O)Nc2cnc3ccccc3c2)cc1 [4-{Methyl-(3-methyl-butyl)-amino}-N-quinolin-3-yl-benzamide] |  |  |  | 
6 | 10000 nM | 97% | 74.1 nM | 156 nM | CN(CCCc1ccccc1)c1ccc(C(=O)Nc2cnc3ccccc3c2)cc1 [4-{Methyl-(3-phenyl-propyl)-amino}-N-quinolin-3-yl-benzamide] |  |  |  | 
7 | 1500 nM | 102% | 31.2 nM |  | Cc1ccc(C(C)CCN(C)c2ccc(C(=O)Nc3cnc4ccccc4c3)cc2)o1 (stereo not drawn) [4-{Methyl-{3-(5-methyl-furan-2-yl)-butyl}-amino}-N-quinolin-3-yl-benzamide] |  |  |  | 
8 | 10000 nM |  | 62.3 nM |  | O=C(Nc1cnc2ccccc2c1)c1ccc2c(c1)CCCC2 [5,6,7,8-Tetrahydro-naphthalene-2-carboxylic acid quinolin-3-ylamide] |  |  |  | 
9 | 2800 nM | 36% |  |  | O=C(Nc1cnc2ccccc2c1)c1cc2cc(Cl)ccc2[nH]1 [5-Chloro-1H-indole-2-carboxylic acid quinolin-3-ylamide] |  |  |  | 
10 | 900 nM | 57% | 647 nM |  | CCCCCc1ccc(C(=O)Nc2cnc3ccccc3c2)s1 [5-Pentyl-thiophene-2-carboxylic acid quinolin-3-ylamide] |  |  |  | 
11 | 3700 nM | 80% | 9.86 nM | 279 nM | O=C(Nc1cnc2ccccc2c1)c1ccc(N2CC3CCCC(C3)C2)nc1 [6-(3-Aza-bicyclo{3.3.1}non-3-yl)-N-quinolin-3-yl-nicotinamide] |  |  |  | 
12 | 390 nM | 43% |  |  | CN(Cc1ccccc1)c1ccc(C(=O)Nc2cnc3ccccc3c2)cn1 [6-(Benzyl-methyl-amino)-N-quinolin-3-yl-nicotinamide] |  |  |  | 
13 | 300 nM and 245 nM | 99% | 35.9 nM and 218 nM |  | CN(c1ccc(C(=O)Nc2cnc3ccccc3c2)cn1)C1CCCCC1 [6-(Cyclohexyl-methyl-amino)-N-quinolin-3-yl-nicotinamide] |  |  |  | 
14 | 1500 nM | 90% | 97.3 nM |  | CCCCCCCN(C)c1ccc(C(=O)Nc2cnc3ccccc3c2)cn1 [6-(Heptyl-methyl-amino)-N-quinolin-3-yl-nicotinamide] |  |  |  | 
15 | 400 nM | 91% | 122 nM |  | CCCCCN(C)c1ccc(C(=O)Nc2cnc3ccccc3c2)cn1 [6-(Methyl-pentyl-amino)-N-quinolin-3-yl-nicotinamide] |  |  |  | 
16 | 1200 nM | 97% | 243 nM | 540 nM | CN(CCc1ccccc1)c1ccc(C(=O)Nc2cnc3ccccc3c2)cn1 [6-(Methyl-phenethyl-amino)-N-quinolin-3-yl-nicotinamide] |  |  |  | 

Row | IC50 [1, 4] | inhibition at 1 µM [2] | Ki [2] | IC50 [1, 5] | Structure (SMILES) | inhibition in vivo at 30 mg/kg [3] | inhibition in vivo at 20 mg/kg ([3]; 20 mg/kg po) | inhibition in vivo at 10 mg/kg ([3]; 10 mg/kg po) | inhibition in vivo at 10 mg/kg ([3]; 10 mg/kg sc)
17 | 215 nM | 44% | 124 nM |  | O=C(Nc1cnc2ccccc2c1)c1ccc(N2CCCCCC2)nc1 [6-Azepan-1-yl-N-quinolin-3-yl-nicotinamide] |  |  |  | 
18 | 5160 nM | 102% | 30.4 nM | 250 nM | O=C(Nc1cnc2ccccc2c1)c1ccc(N2CCCCCCC2)nc1 [6-Azocan-1-yl-N-quinolin-3-yl-nicotinamide] |  |  |  | 
19 | 990 nM | 1% |  |  | O=C(Nc1cnc2ccccc2c1)c1ccc(NC2CCCCC2)nc1 [6-Cyclohexylamino-N-quinolin-3-yl-nicotinamide] |  |  |  | 
20 |  | 57% | 281000 nM | 8000 nM | CCCCCNc1ccc(C(=O)Nc2cnc3ccccc3c2)cn1 [6-Pentylamino-N-quinolin-3-yl-nicotinamide] |  |  |  | 
21 | 36.7 nM |  | 5.24 nM | 30 nM | CCC(C)(C)c1ccc(CCC(=O)Nc2cnc3ccccc3c2)cc1 [Example 14, 3-[4-(1,1-Dimethyl-propyl)-phenyl]-N-quinolin-3-yl-propionamide] | 47% |  |  | 
22 | 260 nM |  | 81.5 nM | 390 nM | CN(CC1CCCCC1)c1ccc(CCC(=O)Nc2cnc3ccccc3c2)cc1 [Example 35, 3-[4-(Cyclohexylmethyl-methyl-amino)-phenyl]-N-quinolin-3-yl-propionamide] |  | 87% |  | 
23 | 1100 nM |  | 178 nM | 190 nM | CCCCCN(C)c1ccc(CCC(=O)Nc2cnc3ccccc3c2)cc1 [Example 37, 3-[4-(Methyl-pentyl-amino)-phenyl]-N-quinolin-3-yl-propionamide] | 58% |  |  | 
24 |  |  |  |  | O=C(C=Cc1ccc(Cl)c(C(F)(F)F)c1)Nc1cnc2ccccc2c1 [Example 56, 3-(4-Chloro-3-trifluoromethyl-phenyl)-N-quinolin-3-yl-acrylamide] |  |  | 58% | 
25 |  |  |  |  | CC(C)(C)c1ccc(C=CC(=O)Nc2cnc3ccccc3c2Cl)cc1 [Example 82, 3-(4-tert-Butyl-phenyl)-N-(4-chloro-quinolin-3-yl)-acrylamide] |  |  | 70% | 
26 | 1900 nM | 102% | 27.3 nM | 72 nM | CN(CCc1ccccc1)c1ccc(C(=O)Nc2cnc3ccccc3c2)cc1 [Example 89, 4-(Methyl-phenethyl-amino)-N-quinolin-3-yl-benzamide] |  |  | 42% | 
27 |  |  |  |  | CCCCCN(C)c1ccc(C(=O)Nc2cnc3ccccc3c2)cc1 [Example 154, 4-(Methyl-pentyl-amino)-N-quinolin-3-yl-benzamide] |  |  |  | 83%
28 |  | 99% | 17.6 nM | 357 nM | O=C(Nc1cnc2ccccc2c1)c1ccc(N2CCC(Cc3ccccc3)CC2)cc1 [Example 180, 4-(4-Benzyl-piperidin-1-yl)-N-quinolin-3-yl-benzamide] |  |  | 64% | 
29 | 84 nM | 98% | 24.1 nM | 106 nM | CCCCCN1CCc2cc(C(=O)Nc3cnc4ccccc4c3)ccc21 [Example 227, 1-Pentyl-2,3-dihydro-1H-indole-5-carboxylic acid quinolin-3-ylamide] |  |  | 52% | 
30 |  |  | 176 nM | 1900 nM | O=C(CCc1ccc(C23CC4CCCC(CC(C4)C2)C3)cc1)Nc1cnc2ccccc2c1 [N-Quinolin-3-yl-3-(4-tricyclo{5.3.1.13,9}dodec-1-yl-phenyl)-propionamide] |  |  |  | 
31 | 70 nM |  | 13 nM |  | CC1(C)CCC(C)(C)c2cc(CCC(=O)Nc3cnc4ccccc4c3)ccc21 [N-Quinolin-3-yl-3-(5,5,8,8-tetramethyl-5,6,7,8-tetrahydro-naphthalen-2-yl)-propionamide] |  |  |  | 
32 | 10000 nM |  | 200 nM |  | O=C(CCc1ccc2c(c1)CCCC2)Nc1cnc2ccccc2c1 [N-Quinolin-3-yl-3-(5,6,7,8-tetrahydro-naphthalen-2-yl)-propionamide] |  |  |  | 

Reference: patent US8394828B2 (Janssen Pharmaceutica, NV, priority 2003, dated 2013)
